Tests used:
acetyl choline esterase = acetyl choline esterase (Homo sapiens, UniProt P22303); conditions: WO 2013/168090 [10]; cited from earlier work
[1] = test system: mice subjected to closed head injury (CHI); test: Barnes maze (BM) acquisition, recall and exploration strategies after CHI; type: in vivo; conditions: 2 weeks after the trauma, 3 days after the last treatment; 125 mg/kg or 50 mg/kg (both doses), gavage, 9 treatments
Experimental: At 1 h after CHI, the NSS is evaluated.
• The BM test is based on the instinct of the mouse to hide when exposed to environmental disturbances and is used to test spatial learning and memory. The maze consists of an elevated circular platform with holes in the perimeter and a small dark hidden goal box. Bright light and aversive noise (85 dB) force the animals to escape from the open platform surface to find the hole under which the dark chamber (21×22×21 cm), “target goal box,” is located. Visual cues of different colors and shapes are placed around the room. The mouse was placed under a cylindrical black start chamber at the center of the maze. […] For the probe trial, the latency to reaching the escape box first are recorded. • The Barnes maze test was performed: • 1) Between days 14-17 (2 weeks) plus a recall test on days 18 and 25 after injury, for a total round of 6. • 2) Between days 54-57 (2 months) plus a recall test on days 58 and 65 after injury for a total round of 2. • 3) Between days 183-186 (6 months) plus a recall test on days 187 and 194 after injury for a total round of 2. • 4) Between days 277-280 (9 months) plus a recall test on days 281 and 288 after injury for a total round of 1. • The captured videos were analyzed with Ethovision XP10 software (Noldus, The Netherlands) for later evaluation of the strategies used to locate the target box. […]

Chain of acetyl choline esterase (P22303 32-614): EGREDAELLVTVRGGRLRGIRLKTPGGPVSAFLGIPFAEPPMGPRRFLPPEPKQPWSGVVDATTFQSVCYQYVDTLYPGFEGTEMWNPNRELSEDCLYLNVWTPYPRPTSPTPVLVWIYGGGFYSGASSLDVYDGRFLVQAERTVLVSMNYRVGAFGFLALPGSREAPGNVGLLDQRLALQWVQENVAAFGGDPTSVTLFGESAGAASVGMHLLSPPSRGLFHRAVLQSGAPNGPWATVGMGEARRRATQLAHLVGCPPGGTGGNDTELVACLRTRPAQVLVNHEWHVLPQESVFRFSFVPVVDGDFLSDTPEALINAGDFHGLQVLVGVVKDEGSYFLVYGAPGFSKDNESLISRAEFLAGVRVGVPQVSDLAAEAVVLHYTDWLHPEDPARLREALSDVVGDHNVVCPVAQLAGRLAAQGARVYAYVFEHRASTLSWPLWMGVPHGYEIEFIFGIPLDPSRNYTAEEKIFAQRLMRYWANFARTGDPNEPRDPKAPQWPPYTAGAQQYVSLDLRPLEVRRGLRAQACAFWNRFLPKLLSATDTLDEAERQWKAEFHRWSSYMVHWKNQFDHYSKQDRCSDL

Structure (SMILES)	Activity of the enzyme acetyl choline esterase in vitro (acetyl choline esterase)	Barnes maze acquisition, learning curve [1]
CC(C)=CCC[C@H](C)CCO [(S) (−) citronellol]	inhibits	
CC(C)=CCCC(C)CCO (centres unmarked) [Citronellol, citronellol]		A significant improvement in the learning curve

— patent US20250073292A1, “PELARGONIUM GRAVEOLENS EXTRACT FOR THE TREATMENT OF TRAUMATIC BRAIN INJURIES” (priority 2021, published 2025)
